Experimental data from patent US5364877A, “Indole derivatives as 5-lipoxygenase inhibitors” (ICI Pharma, priority 1990, dated 1994).

Molecular target: T1, 5-LO (Rattus norvegicus, UniProt P12527)
T1 construct: liberation of LTB4 induced by zymosan within an air pouch generated within the subcutaneous tissue of the back of male rats; endogenous in cells; host or cells: cells in the air pouch of living male rats (in vivo)
T1 sequence (P12527 1-673): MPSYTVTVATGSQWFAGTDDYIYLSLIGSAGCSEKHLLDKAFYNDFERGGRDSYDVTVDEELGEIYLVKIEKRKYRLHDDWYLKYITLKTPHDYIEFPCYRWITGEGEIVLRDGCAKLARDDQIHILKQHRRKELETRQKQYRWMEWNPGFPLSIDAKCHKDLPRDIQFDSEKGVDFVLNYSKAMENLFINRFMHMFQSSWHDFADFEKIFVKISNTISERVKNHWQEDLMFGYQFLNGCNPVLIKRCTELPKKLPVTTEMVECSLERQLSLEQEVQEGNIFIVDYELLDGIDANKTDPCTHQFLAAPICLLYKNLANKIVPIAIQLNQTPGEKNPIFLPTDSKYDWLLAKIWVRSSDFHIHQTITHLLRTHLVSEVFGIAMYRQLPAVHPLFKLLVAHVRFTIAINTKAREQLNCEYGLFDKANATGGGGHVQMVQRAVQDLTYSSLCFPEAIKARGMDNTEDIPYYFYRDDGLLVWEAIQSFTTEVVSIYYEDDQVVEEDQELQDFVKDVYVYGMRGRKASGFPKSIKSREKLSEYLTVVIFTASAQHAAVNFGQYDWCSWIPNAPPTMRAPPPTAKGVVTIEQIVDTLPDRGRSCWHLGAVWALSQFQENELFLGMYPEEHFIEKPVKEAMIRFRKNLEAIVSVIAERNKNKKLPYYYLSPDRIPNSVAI
Test: Test g) zymosan-induced liberation of LTB4 within an air pouch in male rats
Assay type: in vivo
Settings: rat, 3 h; test g), oral
Protocol: g) An in vivo system involving measuring the effects of a test compound administered orally against the liberation of LTB4 induced by zymosan within an air pouch generated within the subcutaneous tissue of the back of male rats. The rats are anaesthetised and air pouches are formed by the injection of sterile air (20 ml). A further injection of air (10 ml) is similarly given after 3 days. At 6 days after the initial air injection the test compound is administered (usually orally as the suspension produced when a solution of the test compound in dimethylsulphoxide is added to hydroxypropylmethylcellulose), followed by the intrapouch injection of zymosan (1 ml of a 1% suspension in physiological saline). After 3 hours the rats are killed, the air pouches are lavaged with physiological saline, and the specific radioimmunoassay described above is used to assay LTB4 in the washings. This test provides an indication of inhibitory effects against 5-LO in an inflammatory milieu.

ED50: < 2 mg/kg
SMILES: COC1(c2cccc(Sc3ccc4c(c3)n(C)c(=O)n4C)c2)CCOCC1 [Example 1, 4-[3-(1,3-dimethyl-2-oxo-2,3-dihydrobenzimidazol-5-ylthio)phenyl]-4-methoxytetrahydropyran]
